Test results from ChEMBL document CHEMBL4270637, “Small molecule-induced degradation of the full length and V7 truncated variant forms of human androgen receptor” (Eur J Med Chem, 2018).
Active and inactive are the calls of the source. The rule behind the calls is not given here.

Tests used:
Androgen receptor [1] = molecular target: T1, Androgen receptor (Homo sapiens, UniProt P10275); assay: Inhibition of R1881-induced full length AR transcriptional activity in human LNCAP cells harboring AR2PB-eGFP construct after 72 hrs by fluorescence assay; format: cell-based
T1 sequence (P10275 whole entry): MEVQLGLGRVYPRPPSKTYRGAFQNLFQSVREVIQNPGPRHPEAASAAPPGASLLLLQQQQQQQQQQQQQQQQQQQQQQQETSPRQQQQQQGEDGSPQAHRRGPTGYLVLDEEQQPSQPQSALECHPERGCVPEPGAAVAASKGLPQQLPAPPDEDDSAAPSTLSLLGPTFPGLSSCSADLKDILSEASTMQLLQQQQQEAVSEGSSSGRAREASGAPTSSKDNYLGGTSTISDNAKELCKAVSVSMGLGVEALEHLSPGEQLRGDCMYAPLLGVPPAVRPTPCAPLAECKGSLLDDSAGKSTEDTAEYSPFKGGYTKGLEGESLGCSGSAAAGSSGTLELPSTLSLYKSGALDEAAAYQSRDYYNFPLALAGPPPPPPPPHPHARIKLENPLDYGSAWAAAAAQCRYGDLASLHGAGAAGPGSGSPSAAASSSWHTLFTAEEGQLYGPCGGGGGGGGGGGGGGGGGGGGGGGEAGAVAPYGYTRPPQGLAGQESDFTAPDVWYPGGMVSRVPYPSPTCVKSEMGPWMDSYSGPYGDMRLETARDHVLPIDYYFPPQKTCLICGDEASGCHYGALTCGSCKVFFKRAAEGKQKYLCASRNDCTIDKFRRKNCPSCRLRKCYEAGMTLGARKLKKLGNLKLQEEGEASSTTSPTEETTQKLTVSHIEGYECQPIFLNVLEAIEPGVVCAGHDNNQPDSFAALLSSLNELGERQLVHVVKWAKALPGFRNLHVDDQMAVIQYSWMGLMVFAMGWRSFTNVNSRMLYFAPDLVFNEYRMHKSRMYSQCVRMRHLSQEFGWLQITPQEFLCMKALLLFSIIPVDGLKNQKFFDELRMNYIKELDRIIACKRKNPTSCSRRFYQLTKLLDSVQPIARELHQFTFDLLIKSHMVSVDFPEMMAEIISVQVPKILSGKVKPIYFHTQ

Androgen receptor [2] = molecular target: Androgen receptor (Homo sapiens, UniProt P10275); assay: Inhibition of R1881-induced transcriptional activity of human AR V7 truncated mutant expressed in human PC3 cells harboring pGL3-ARR3tk-NLuc after 24 hrs by luciferase reporter gene assay; format: cell-based
Androgen receptor [3] = molecular target: T1, Androgen receptor; assay: Inhibition of full length AR transcriptional activity in human LNCAP cells harboring AR2PB-eGFP construct assessed as reduction in R1881-induced secreted PSA level after 72 hrs by fluorescence assay; format: cell-based
CWR22R [4] = assay: Cytotoxicity against human 22Rv1 cells assessed as growth inhibition at lower concentration after 72 hrs by presto-blue dye based assay; format: functional, cell-based
[5] = molecular target: T2, Androgen receptor (Homo sapiens) (UniProt P10275); assay: Induction of full length AR degradation in human LNCAP cells at 2 to 20 uM after 5 hrs by Western blot analysis; format: cell-based
T2 sequence (whole entry): T1 sequence (P10275 whole entry)

LNCaP [6] = assay: Induction of apoptosis in human LNCAP cells assessed as PARP cleavage at 2 to 20 uM after 5 hrs by Western blot analysis; format: functional, cell-based
[7] = molecular target: T2, Androgen receptor (Homo sapiens); details: at 10 µM
Description: Antagonist activity at full length YFP-tagged AR (unknown origin) expressed in HEK293T cells assessed as inhibition of R1881-induced nuclear translocation at 10 uM after 4 hrs by DAPI staining based confocal microscopic method

[8] = molecular target: T2, Androgen receptor (Homo sapiens); assay: Induction of full length AR degradation in human LNCAP cells assessed as reduction in AR mRNA level at 2 to 20 uM after […] by RT-PCR method; format: cell-based
[9] = molecular target: T2, Androgen receptor (Homo sapiens); assay: Inhibition of R1881-induced transcriptional activity of human AR expressed in human PC3 cells harboring pGL3-ARR3tk-NLuc at 2 uM after 24 hrs by luciferase reporter gene assay; format: cell-based
[10] = molecular target: Estrogen receptor (Homo sapiens) (UniProt Q92731+P03372); assay: Inhibition of estradiol-induced transcriptional activity of human ER expressed in human PC3 cells harboring pGL3-ERE-NLuc at 2 uM after 24 hrs by luciferase reporter gene assay; format: cell-based
[11] = molecular target: T3, Glucocorticoid receptor (Homo sapiens) (UniProt P04150); assay: Inhibition of dexamethasone-induced transcriptional activity of human GR expressed in human PC3 cells harboring pGL3-ARR3tk-NLuc at 2 uM after 24 hrs by luciferase reporter gene assay; format: cell-based
T3 sequence (whole entry): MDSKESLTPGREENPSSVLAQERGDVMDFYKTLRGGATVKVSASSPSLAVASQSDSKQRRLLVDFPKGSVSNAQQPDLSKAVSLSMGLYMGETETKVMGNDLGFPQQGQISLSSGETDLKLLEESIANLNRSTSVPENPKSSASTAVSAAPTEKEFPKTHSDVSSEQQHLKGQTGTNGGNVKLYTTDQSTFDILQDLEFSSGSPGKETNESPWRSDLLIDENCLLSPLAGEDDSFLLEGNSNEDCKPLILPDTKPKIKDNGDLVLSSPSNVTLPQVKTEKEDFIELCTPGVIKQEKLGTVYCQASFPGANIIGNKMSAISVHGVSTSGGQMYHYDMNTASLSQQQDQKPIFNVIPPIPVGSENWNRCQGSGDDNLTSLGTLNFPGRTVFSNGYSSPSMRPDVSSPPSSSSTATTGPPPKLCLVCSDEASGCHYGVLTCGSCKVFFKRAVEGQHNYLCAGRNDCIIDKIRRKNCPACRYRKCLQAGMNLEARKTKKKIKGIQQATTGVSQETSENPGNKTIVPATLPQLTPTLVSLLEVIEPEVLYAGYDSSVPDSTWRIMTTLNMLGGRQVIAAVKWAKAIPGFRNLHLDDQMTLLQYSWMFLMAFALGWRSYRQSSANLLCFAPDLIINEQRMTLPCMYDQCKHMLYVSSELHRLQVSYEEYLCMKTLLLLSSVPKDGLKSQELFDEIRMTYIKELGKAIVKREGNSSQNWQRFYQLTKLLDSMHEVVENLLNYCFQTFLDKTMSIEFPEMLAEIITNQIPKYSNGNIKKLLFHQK

[12] = molecular target: T4, Progesterone receptor (Homo sapiens) (UniProt P06401); assay: Inhibition of progesterone-induced transcriptional activity of human PR expressed in human PC3 cells harboring pGL3-ARR3tk-NLuc at 2 uM after 24 hrs by luciferase reporter gene assay; format: cell-based
T4 sequence (whole entry): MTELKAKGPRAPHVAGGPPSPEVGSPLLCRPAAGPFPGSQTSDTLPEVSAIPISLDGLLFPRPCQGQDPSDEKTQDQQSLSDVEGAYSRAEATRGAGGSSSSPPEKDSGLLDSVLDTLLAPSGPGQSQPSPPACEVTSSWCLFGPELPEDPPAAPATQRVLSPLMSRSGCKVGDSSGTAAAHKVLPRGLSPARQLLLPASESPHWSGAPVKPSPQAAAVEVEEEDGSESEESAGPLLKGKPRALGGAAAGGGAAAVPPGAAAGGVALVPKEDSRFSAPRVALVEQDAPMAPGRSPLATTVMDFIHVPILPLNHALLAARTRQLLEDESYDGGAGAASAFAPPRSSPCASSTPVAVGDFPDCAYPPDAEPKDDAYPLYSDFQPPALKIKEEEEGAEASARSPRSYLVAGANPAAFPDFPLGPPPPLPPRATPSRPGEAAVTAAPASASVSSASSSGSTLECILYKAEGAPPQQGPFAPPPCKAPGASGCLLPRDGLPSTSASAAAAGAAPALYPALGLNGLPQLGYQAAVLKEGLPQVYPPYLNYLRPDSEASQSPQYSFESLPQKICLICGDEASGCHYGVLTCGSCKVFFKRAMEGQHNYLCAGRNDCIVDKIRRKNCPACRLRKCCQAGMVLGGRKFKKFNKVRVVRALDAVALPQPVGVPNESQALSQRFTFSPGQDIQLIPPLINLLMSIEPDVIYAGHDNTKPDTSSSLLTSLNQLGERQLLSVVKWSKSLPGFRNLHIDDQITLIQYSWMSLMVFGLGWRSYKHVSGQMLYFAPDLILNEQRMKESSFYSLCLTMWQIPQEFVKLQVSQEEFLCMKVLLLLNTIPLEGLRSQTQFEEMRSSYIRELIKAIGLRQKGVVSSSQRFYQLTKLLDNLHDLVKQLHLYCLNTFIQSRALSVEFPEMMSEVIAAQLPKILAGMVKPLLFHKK

LNCaP [13] = assay: Cytotoxicity against human LNCAP cells harboring AR2PB-eGFP construct after 72 hrs by MTS assay; format: cell-based
PC-3 [14] = assay: Cytotoxicity against human PC3 cells harboring pGL3-ARR3tk-NLu/human AR V7 truncated mutant after 72 hrs by MTS assay; format: cell-based; details: pc-3, 72 h
CWR22R [15] = assay: Cytotoxicity against human 22Rv1 cells assessed as growth inhibition at 5 uM after 72 hrs by presto-blue dye based assay; format: functional, cell-based
CWR22R [16] = assay: Cytotoxicity against human 22Rv1 cells assessed as growth inhibition at 0.5 uM after 72 hrs by presto-blue dye based assay; format: functional, cell-based
PC-3 [17] = assay: Cytotoxicity against human PC3 cells assessed as growth inhibition after 72 hrs by presto-blue dye based assay; format: cell-based; details: pc-3, 72 h
Androgen receptor [18] = molecular target: T5, Androgen receptor (Rattus norvegicus, UniProt P15207); assay: Displacement of Fluormone-DHT from rat GST-tagged rat AR LBD expressed in insect cells after 4 hrs by fluorescence polarization assay
T5 sequence (P15207 whole entry): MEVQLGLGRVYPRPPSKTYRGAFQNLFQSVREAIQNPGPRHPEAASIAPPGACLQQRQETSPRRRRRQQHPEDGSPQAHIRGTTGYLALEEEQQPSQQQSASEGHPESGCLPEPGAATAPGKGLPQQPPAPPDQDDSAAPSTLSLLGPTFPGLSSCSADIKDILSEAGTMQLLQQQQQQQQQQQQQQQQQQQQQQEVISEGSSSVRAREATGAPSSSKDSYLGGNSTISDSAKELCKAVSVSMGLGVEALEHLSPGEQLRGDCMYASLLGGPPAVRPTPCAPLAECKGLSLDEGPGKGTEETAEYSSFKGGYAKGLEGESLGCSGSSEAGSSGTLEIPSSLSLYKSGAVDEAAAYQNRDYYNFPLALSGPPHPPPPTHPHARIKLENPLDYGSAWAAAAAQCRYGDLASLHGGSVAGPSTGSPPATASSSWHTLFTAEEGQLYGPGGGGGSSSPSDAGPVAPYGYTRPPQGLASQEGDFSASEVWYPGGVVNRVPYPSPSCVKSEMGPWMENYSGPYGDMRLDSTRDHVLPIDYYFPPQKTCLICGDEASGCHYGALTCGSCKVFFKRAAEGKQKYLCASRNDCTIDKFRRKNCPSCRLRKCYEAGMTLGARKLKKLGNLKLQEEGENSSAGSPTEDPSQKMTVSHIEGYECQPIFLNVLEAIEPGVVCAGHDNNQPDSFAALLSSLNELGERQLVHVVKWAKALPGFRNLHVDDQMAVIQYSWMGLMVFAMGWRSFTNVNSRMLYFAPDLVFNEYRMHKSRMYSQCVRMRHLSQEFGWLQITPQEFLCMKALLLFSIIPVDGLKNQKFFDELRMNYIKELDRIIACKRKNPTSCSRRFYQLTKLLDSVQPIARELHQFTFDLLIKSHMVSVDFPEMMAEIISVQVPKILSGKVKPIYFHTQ

Tubulin = assay: Inhibition of tubulin polymerization (unknown origin); format: protein-complex assay, Homo sapiens

Row | Structure (SMILES) | IC50 (Androgen receptor [1]) | IC50 (Androgen receptor [2]) | IC50 (Androgen receptor [3]) | growth inhibition (GI) (CWR22R [4]) | Activity [5] | Activity (LNCaP [6]) | inhibition [7] | Activity [8] | inhibition [9] | inhibition [10] | inhibition [11] | inhibition [12] | Activity (LNCaP [13]) | Activity (PC-3 [14]) | growth inhibition (GI) (CWR22R [15]) | growth inhibition (GI) (CWR22R [16]) | growth inhibition (GI) (PC-3 [17]) | IC50 (Androgen receptor [18]) | IC50 (Tubulin)
1 | COc1ccc(C=C2c3cccc(Cl)c3C(=O)c3c(Cl)cccc32)c(OC)c1O | 1140 nM | 10000 nM | 170 nM | Active | inactive | inactive | inactive | – | – | – | – | – | – | – | – | – | – | – | –
2 | COc1cc(C=C2c3cccc(Cl)c3C(=O)c3c(Cl)cccc32)cc(OC)c1O | > 10000 nM | > 10000 nM | – | – | – | – | – | – | – | – | – | – | – | – | – | – | – | – | –
3 | COc1ccc(C=C2c3ccccc3C(=O)c3ccccc32)c(O)c1 | 232 nM | < 10000 nM | 100 nM | Active | Active | inactive | inactive | inactive | Active | inactive | inactive | inactive | – | – | – | – | – | – | –
4 | O=C1c2c(Cl)cccc2C(=Cc2ccccc2O)c2cccc(Cl)c21 | – | – | – | – | – | – | – | – | – | – | – | – | Toxic | Toxic | – | – | – | – | –
5 | COc1cccc(C=C2c3cccc(Cl)c3C(=O)c3c(Cl)cccc32)c1O | 1480 nM | 10000 nM | 730 nM | – | Active | inactive | inactive | – | – | – | – | – | – | – | Active | – | – | – | –
6 | O=C1c2ccccc2C(=Cc2cccc(O)c2)c2ccccc21 | 316 nM | < 10000 nM | 350 nM | – | Active | inactive | inactive | inactive | Active | inactive | inactive | inactive | – | – | – | Active | Toxic | 625 to 2500 nM | 10000 nM
7 | COc1ccc(C=C2c3cccc(Cl)c3C(=O)c3c(Cl)cccc32)cc1O | 1890 to 6000 nM | 10000 nM | 340 nM | Active | inactive | inactive | inactive | – | – | – | – | – | – | – | – | – | – | – | –
